Source: US20080039410A1, “Inositol 1,4,5-Trisphosphate Receptor Mutants and Uses Thereof” (priority 2004, published 2008)

How the values were obtained:
Assay type in all cases: cell-based, rat
[1] = system: S2− InsP3R-1; assay: Flash photolysis of caged InsP3 (ci-IP3/PM), Fluo-4, Dt-40 3ko cells expressing S2− InsP3R-1 constructs
Experimental: Transfected cells were simultaneously loaded with the visible wavelength indicator Fluo-4 and a cell-permeable form of caged inositol trisphosphate (ci-IP3/PM) for 30 min. ci-IP3/PM is a homologue of cm-IP3/PM. The 2- and 3-hydroxyls of the inositol ring are protected by an isopropylidene group in ci-IP3/PM and are protected by a methoxymethylene group in cm-IP3/PM (45). Like cm-IP3/PM, ci- IP3/PM diffuses across cell membranes, and the PM group is hydrolyzed by cellular esterases, and Ca^2+ release can be induced upon photouncaging as i-IP3 is liberated from the cage and acts in a similar fashion to InSP3 at InsP3R^2. A further period of 30 min was allowed for de-esterification of both dye and cage. Cells were illuminated at 488±10 nm and fluorescence collected through a 525±25-nm bandpass filter and captured using the Till Photonics imaging suite. […] Photolytic release was performed as described previously by using a pulsed xenon arc lamp (Till Photonics). A high intensity (0.5-5 ms duration; 80 J) discharge of UV light (360±7.5 nm) was reflected onto the plane of focus by using a DM400 dichroic mirror and Nikon 40× oil immersion objective, 1.3 NA.
To investigate the consequences of InsP3R-1 phosphorylation, the Ca^2+ release properties of phosphomimetic mutations in the functionally important sites in both S2+ and S2− InsP3R-1 was analyzed in Dt-40 3ko cells. This cell line provides the only known InsP3R null background (42, 43). In initial experiments, a comparison was made between the sensitivity of Ca^2+ release by InsP3R-1 phosphomimetic mutations versus nonphosphorylatable alanine mutations at the sites. Dt-40 3ko cells were transfected with DNA encoding HcRed to facilitate identification of transfected cells and either S2− S1589E/S1755E InsP3R-1 (S2−EE) or S2− S1589A/S1755A (S2−AA). Ca^2+ release was monitored following flash photolysis of ci-IP3, a cell-permeable form of caged InSP3. This experimental paradigm provides a relatively direct assessment of the effects of InsP3R-1 phosphorylation on the Ca^2+ release process. […]
Target sequence in this assay (P29994 1-604 limits assumed): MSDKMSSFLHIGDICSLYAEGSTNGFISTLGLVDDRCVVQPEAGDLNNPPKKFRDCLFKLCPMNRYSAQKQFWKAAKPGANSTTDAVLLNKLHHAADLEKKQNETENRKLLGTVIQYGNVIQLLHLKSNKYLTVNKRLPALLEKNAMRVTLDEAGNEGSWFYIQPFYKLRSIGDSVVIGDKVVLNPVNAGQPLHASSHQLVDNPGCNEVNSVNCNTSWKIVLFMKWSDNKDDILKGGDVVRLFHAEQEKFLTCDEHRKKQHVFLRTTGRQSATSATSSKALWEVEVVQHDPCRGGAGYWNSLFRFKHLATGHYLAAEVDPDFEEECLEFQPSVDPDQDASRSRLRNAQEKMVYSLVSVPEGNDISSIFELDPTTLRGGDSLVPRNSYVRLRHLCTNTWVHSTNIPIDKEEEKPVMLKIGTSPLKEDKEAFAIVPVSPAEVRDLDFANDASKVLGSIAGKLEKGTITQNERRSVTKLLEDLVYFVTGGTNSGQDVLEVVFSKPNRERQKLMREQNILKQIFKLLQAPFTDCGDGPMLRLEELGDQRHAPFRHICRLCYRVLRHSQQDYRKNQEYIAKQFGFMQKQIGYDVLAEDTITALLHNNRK

[2] = system: S2− InsP3R-1; assay: Potentiation of CCh-induced Ca2+ release after PKG activation (8-Br cGMP), S2− InsP3R-1 constructs in DT-40 3ko cells
Experimental: Transfected DT-40 3ko cells were washed once in a HEPES-buffered physiological saline solution (HEPES-PSS) containing (in mM) 5.5 glucose, 137 NaCl, 0.56 MgCl2, 4.7 KCl, 1 Na2HPO4, 10 HEPES (pH 7.4), 1.2 CaCl2 and 1% w/v Bovine Serum Albumin. Cells were then resuspended in BSA HEPES-PSS with 1 μM Fura-2 (AM), placed on a 15 mm glass coverslip in a low volume perfusion chamber (Warner Instruments) and allowed to adhere for 30 minutes at room temperature. Cells were perfused continually for 10 minutes with HEPES-PSS before experimentation to allow Fura-2 de-esterification. A field of cells for each experiment was chosen that contained a wide range of transfection efficiency based upon the intensity of red fluorescence emitted when excited at 560 nm. [Ca^2+]i imaging was performed essentially as previously described using an inverted epifluorescence Nikon microscope with a 40× oil immersion objective lens (numerical aperture, 1.3). […] Fluorescence images were captured and digitized with a digital camera driven by TILL Photonics software. […] 340/380 ratio images were calculated online and stored immediately to hard disk.
The effects of treatment were determined by normalizing the peak change in fluorescence ratio by stimulation following forskolin or 8-Br cGMP exposure to that of stimulation in control HEPES-PSS. […]

[3] = system: S2− InsP3R-1; assay: Potentiation of CCh-induced Ca2+ release after PKA activation (forskolin), S2− InsP3R-1 constructs in DT-40 3ko cells; conditions: low affinity indicator Fura-2-FF

Substance | cells showing Ca^2+ release (>0.05% ΔF/F) ([1]; 0.5 ms UV discharge) | cells showing Ca^2+ release ([1]; 1.25 ms UV flash) | response to photolysis of ci-IP3 versus nonphosphorylatable mutant ([1]; UV flash 0.5-5 ms) | effect of 8-Br cGMP treatment on CCh-induced Ca^2+ release ([2]; 10 μM 8-Br cGMP) | Ca^2+ release after PKG activation ([2]; S2 − InsP3R-1 constructs, Table 2) | fold potentiation of CCh-induced Ca^2+ release by forskolin [3]
S2−EE: phosphomimetic S1589E/S1755E mutant of the short splice variant | ~60% | all cells | lower threshold of UV light exposure |  |  | 
S2−WT: wild-type rat type-1 InsP3 receptor, peripheral short S2− splice variant (SEQ ID NO: 17) |  |  |  | no effect | no change | ~4.5 fold
